Tests used:
[1] = molecular target: T1, p110β/p85α (Homo sapiens, UniProt P42338); assay: Transcreener KINASE Assay, kinase inhibition of p110β/p85α; assay type: biochemical; settings: for IC50: read-out: PI3Kβ IC50
T1 construct: purchased Millipore
Procedure: (§1) PI3K kinases including p110α/p85α, p110δ/p85α and p110γ are purchased from Invitrogen, and p110β/p85α is from Millipore.
(§2) Primary screening data and IC50 values are measured using Transcreener™ KINASE Assay (Bellbrook, Catalog #3003-10K). […] It is a universal, homogenous, high throughput screening (HTS) technology using a far-red, competitive fluorescence polarization immunoassay based on the detection of ADP to monitor the activity of enzymes that catalyze group transfer reactions. Briefly, the Transcreener KINASE Assay is designed as a simple two-part, endpoint assay.
(§3) In the first step, the 25 ul kinase reaction is performed by preparing a reaction mixture containing 5 ul test compound (2% DMSO final concentration), 10 ul kinase, buffer (50 mM HEPES, 100 mM NaCl, 1 mM EGTA, 0.03% CHAPS, 3 mM MgCl2, and freshly supplemented 1 mM DTT), and 10 ul 30 uM PIP2/10 uM ATP. The plate is sealed and incubated for 80 min at room temperature. Next, 25 ul ADP detection mix is added per well. The plate is sealed again and incubated for 60 min at room temperature, and then measure fluorescence polarization by Tecan Infinite F500 Reader.
(§4) Data is analyzed and IC50s are generated using the add-in software for Microsoft Excel, Xlfit™ (version 2.0). IH %=(ADP amount under 2% DMSO-ADP amount under test compound)/ADP amount under 2% DMSO.

[2] = molecular target: T2, p110δ/p85α (Homo sapiens, UniProt O00329); assay: Transcreener KINASE Assay, kinase inhibition of p110δ/p85α; assay type: biochemical; settings: for IC50: read-out: PI3Kδ IC50
T2 construct: purchased Invitrogen
Procedure: as §1, §2, §3, §4

[3] = molecular target: T3, p110γ (Homo sapiens, UniProt P48736); assay: Transcreener KINASE Assay, kinase inhibition of p110γ; assay type: biochemical; settings: for IC50: read-out: PI3Kγ IC50
T3 construct: purchased Invitrogen
Procedure: PI3K kinases including p110α/p85α, p110δ/p85α and p110γ are purchased from Invitrogen, and p110β/p85α is from Millipore. Primary screening data and IC50 values are measured using Transcreener™ KINASE Assay (Bellbrook, Catalog #3003-10K). […] It is a universal, homogenous, high throughput screening (HTS) technology using a far-red, competitive fluorescence polarization immunoassay based on the detection of ADP to monitor the activity of enzymes that catalyze group transfer reactions. Briefly, the Transcreener KINASE Assay is designed as a simple two-part, endpoint assay. […] The plate is sealed and incubated for 80 min at room temperature. Next, 25 ul ADP detection mix is added per well. The plate is sealed again and incubated for 60 min at room temperature, and then measure fluorescence polarization by Tecan Infinite F500 Reader. Data is analyzed and IC50s are generated using the add-in software for Microsoft Excel, Xlfit™ (version 2.0).

[4] = molecular target: T4, PI3Kγ (Mus musculus, UniProt Q9JHG7); assay: Acumen Assay - Raw264.7 p-AKT Assay (C5a stimulated); assay type: cell-based; settings: Raw264.7 macrophage cells, compound 30 min, 10 nM C5a 5 min, p-AKT (Ser473) readout; read-out: PI3Kγ cell-C5a Raw264.7 IC50
T4 construct: endogenous in cells; host or cells: Raw264.7 macrophage cells
Procedure: Acumen® eX3 (A Mμltilaser Microplate Cytometer For Enhanced High Content Screening): TTP LabTech
3×10^4 Raw264.7 macrophage cells were seeded into 96-well plates with DMEM+10% heat-inactivated FBS at […], 90 ul/well, overnight. After starvation for 3 hr at 37° C. under 5% CO2, Raw264.7 cells were treated with 10 ul/well various concentrations of compound or 0.5% DMSO for 30 min, and then stimulated with 10 ul/well 10 nM C5a for 5 min.
1.) Cells were fixed 110 μL of 4% pre-warmed Paraformaldehyde (2% final), incubate for 45 min at room temperature.
2.) Remove paraformaldehyde solution. Add 100 μL of ice-cold 0.1% Triton X-100 in PBS and leave at 4° C. for 30 min.
3.) Wash once in 100 μL PBS.
4.) Incubate with 100 μL blocking buffer (1% BSA, in PBS) for 2 hours at room temperature.
5.) Wash once for 5 min with 100 ul PBS.
6.) Incubate with 40 μL 1:200 dilution of phospho AKT (Ser473) rabbit antibody in antibody dilution buffer (0.1% BSA, in PBS) overnight at 4° C.
7.) Wash for 3 times for 10 min with 100 ul PBS.
8.) Incubate for 90 min at room temperature with 50 μL of goat anti-rabbit Alex488 antibody at a 1:1,000 dilution in antibody dilution buffer (0.1% BSA, in PBS). Cover plate in foil to keep out of light.
9.) Wash for 3 times for 10 min with 100 μL PBS.
10.) Add 50 μL of 1.5 μM Propidium Iodide solution to each well to determine cell number at a 1:1,000 dilution in PBS (stock: 1.5 mM).
11.) Incubate at room temperature for 30 min.
12.) Seal the plate with a black cover-seal (supplied with plate).
13.) Load the plate into the Acumen Explorer and scan with the appropriate instrument settings.

[5] = molecular target: T5, p110α/p85α (Homo sapiens, UniProt P42336); assay: Transcreener KINASE Assay, kinase inhibition of p110α/p85α; assay type: biochemical
T5 construct: purchased Invitrogen
Procedure: as §1, §2, §3, §4

T3 sequence (P48736 whole entry, species assumed): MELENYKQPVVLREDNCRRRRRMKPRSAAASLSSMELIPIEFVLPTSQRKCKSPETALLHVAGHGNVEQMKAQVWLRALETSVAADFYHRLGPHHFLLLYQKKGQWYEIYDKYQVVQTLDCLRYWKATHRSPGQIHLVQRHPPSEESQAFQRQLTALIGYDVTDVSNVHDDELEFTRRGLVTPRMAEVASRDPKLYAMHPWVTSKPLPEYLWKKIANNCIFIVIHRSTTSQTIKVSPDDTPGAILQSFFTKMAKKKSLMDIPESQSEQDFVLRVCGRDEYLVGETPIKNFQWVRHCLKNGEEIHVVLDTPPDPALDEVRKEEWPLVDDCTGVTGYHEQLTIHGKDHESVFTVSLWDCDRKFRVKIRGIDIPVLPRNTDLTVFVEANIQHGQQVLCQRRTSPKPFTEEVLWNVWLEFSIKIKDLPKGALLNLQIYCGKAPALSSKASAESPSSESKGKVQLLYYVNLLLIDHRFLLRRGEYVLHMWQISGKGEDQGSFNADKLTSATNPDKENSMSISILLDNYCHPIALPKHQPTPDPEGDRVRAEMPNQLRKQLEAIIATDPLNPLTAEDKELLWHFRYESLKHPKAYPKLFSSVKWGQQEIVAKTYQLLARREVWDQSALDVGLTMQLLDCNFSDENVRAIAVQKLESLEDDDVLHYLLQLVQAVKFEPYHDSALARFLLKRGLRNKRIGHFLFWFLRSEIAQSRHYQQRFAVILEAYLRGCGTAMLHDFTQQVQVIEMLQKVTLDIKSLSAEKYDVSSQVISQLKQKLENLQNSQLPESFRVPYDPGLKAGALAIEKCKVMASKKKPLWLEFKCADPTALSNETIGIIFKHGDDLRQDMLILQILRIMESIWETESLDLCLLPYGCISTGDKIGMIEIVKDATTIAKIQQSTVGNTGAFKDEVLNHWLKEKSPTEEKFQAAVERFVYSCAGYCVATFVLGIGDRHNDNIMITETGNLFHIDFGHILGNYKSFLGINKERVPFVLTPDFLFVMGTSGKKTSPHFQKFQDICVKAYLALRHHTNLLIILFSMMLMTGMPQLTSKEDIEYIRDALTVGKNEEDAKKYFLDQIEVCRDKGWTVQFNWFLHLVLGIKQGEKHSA
T2 sequence (O00329 whole entry, species assumed): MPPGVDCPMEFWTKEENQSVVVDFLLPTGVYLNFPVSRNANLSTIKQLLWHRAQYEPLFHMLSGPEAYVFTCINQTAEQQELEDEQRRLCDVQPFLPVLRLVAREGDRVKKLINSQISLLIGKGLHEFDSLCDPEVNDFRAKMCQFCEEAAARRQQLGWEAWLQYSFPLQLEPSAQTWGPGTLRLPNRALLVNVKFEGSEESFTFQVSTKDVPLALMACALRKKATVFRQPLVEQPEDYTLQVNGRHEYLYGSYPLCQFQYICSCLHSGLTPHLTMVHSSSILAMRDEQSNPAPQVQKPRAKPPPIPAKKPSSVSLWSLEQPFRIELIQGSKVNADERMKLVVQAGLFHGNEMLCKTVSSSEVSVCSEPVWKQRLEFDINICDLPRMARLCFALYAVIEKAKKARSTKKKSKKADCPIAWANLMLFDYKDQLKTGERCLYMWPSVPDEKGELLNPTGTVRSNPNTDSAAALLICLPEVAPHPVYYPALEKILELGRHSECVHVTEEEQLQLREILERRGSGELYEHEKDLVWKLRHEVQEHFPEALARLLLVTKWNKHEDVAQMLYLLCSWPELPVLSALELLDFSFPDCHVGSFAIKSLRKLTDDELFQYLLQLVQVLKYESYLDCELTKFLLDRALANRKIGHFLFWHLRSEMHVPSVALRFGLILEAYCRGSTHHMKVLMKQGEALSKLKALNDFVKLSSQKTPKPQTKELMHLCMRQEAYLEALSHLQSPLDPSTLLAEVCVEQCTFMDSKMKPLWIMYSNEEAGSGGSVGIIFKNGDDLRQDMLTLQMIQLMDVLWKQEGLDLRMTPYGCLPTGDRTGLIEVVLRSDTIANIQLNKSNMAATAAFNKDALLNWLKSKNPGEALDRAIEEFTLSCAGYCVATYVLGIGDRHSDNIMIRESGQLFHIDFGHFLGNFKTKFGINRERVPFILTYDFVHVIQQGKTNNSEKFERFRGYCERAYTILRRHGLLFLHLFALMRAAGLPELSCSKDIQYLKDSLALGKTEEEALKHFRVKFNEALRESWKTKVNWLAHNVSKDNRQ
T2 sequence (P27986 whole entry partner, species assumed): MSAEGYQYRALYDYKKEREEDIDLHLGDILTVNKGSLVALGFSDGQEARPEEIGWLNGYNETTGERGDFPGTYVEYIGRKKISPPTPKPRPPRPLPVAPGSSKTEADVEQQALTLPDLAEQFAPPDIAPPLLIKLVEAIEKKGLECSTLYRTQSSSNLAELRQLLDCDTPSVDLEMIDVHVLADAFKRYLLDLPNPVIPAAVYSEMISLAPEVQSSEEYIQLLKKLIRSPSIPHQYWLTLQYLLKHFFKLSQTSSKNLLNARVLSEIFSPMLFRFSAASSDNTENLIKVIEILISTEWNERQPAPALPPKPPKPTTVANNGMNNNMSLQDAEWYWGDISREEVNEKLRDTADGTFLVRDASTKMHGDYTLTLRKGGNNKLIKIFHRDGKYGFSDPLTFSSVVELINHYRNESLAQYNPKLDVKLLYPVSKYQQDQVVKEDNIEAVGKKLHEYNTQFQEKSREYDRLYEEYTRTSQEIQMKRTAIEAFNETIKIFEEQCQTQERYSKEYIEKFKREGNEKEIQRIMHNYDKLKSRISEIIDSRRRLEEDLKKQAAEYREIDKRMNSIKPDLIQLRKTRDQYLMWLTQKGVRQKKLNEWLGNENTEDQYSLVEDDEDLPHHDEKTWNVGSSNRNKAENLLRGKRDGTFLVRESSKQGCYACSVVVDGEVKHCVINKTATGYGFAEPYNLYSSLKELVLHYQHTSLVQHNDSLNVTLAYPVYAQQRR
T5 sequence (P42336 whole entry, species assumed): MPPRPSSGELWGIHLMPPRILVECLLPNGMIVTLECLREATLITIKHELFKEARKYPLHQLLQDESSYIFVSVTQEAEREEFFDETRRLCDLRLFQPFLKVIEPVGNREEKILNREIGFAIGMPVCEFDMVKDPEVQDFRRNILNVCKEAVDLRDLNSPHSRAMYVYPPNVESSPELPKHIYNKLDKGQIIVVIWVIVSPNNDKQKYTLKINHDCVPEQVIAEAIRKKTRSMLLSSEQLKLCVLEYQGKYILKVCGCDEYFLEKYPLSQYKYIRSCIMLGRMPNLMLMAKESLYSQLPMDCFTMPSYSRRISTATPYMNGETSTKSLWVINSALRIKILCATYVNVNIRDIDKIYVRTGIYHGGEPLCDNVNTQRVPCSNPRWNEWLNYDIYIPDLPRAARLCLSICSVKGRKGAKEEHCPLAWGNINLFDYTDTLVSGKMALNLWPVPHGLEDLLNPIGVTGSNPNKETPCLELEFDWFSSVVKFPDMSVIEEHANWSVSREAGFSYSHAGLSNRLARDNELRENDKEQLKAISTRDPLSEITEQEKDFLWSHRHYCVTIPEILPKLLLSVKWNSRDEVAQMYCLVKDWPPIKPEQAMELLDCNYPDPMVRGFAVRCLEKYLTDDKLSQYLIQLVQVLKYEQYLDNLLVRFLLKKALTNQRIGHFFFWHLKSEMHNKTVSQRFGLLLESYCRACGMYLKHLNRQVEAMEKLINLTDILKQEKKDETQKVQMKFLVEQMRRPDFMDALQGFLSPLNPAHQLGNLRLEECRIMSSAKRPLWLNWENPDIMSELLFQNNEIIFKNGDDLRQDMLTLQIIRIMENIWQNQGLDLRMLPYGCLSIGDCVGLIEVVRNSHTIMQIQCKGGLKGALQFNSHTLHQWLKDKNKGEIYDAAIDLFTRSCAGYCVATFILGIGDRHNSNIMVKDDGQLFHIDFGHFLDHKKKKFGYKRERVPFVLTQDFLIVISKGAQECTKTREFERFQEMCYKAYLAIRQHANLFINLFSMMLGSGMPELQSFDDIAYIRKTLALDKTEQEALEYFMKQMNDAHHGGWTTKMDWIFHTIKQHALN
T5 sequence (P27986 whole entry partner, species assumed): as the sequence (P27986 whole entry partner, species assumed) above
T1 sequence (P42338 whole entry, species assumed): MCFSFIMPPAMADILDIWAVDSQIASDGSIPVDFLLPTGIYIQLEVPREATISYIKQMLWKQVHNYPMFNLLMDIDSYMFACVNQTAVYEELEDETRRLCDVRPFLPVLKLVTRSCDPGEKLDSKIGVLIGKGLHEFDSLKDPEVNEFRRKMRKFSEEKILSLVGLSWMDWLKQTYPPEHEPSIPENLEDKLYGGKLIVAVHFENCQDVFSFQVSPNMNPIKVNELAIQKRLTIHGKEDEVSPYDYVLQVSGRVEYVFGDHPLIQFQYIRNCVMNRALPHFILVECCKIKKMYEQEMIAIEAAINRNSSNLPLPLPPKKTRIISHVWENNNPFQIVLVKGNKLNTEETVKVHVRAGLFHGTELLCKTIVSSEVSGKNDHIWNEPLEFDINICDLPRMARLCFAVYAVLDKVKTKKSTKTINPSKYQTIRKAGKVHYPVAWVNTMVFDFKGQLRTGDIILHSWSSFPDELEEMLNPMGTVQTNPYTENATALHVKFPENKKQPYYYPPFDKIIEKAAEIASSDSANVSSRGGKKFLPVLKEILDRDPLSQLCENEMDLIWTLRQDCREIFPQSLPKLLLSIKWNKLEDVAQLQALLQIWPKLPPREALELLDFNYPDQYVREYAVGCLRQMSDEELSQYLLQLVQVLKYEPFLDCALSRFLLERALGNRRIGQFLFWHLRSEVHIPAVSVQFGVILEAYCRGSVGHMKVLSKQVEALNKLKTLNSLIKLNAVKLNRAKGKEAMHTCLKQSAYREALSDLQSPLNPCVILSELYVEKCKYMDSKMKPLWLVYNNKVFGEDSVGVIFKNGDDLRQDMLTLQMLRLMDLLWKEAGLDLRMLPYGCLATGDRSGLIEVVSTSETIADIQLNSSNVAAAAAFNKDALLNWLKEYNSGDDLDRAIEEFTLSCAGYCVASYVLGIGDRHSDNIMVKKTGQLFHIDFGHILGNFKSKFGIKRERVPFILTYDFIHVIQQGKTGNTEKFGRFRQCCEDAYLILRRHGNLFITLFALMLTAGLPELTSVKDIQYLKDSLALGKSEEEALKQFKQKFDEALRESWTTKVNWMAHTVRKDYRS
T1 sequence (P27986 whole entry partner, species assumed): as the sequence (P27986 whole entry partner, species assumed) above

SMILES: CC(Nc1nc(N)nc2c1C(=O)CCN2)c1cn2ccc(F)c2c(=O)n1-c1ccccc1 (single isomer, unassigned) [Compound 407]
- IC50 [1]: 0.068 µM
- IC50 [2]: 0.001 µM
- IC50 [3]: 0.002 µM
- IC50 [4]: 0.063 µM

SMILES: CC(Nc1nc(N)ncc1C#N)c1cn2ccc(F)c2c(=O)n1-c1ccccc1 (single isomer, unassigned) [Compound 449]
- IC50 [1]: 0.045 µM
- IC50 [2]: 0.001 µM
- IC50 [3]: 0.004 µM
- IC50 [4]: 0.087 µM

SMILES: CC(Nc1ncnc2[nH]cc(F)c12)c1cc2ncc(Cl)n2c(=O)n1-c1ccccc1 (single isomer, unassigned) [Compound 450]
- IC50 [1]: 0.042 µM
- IC50 [2]: 0.0004 µM
- IC50 [3]: 0.017 µM
- IC50 [4]: 0.072 µM

SMILES: N#Cc1c[nH]c2ncnc(N3CCC[C@H]3c3nn4cccc4c(=O)n3-c3ccccc3)c12 [Compound 1, (S)-4-(2-(4-oxo-3-phenyl-3,4-dihydropyrrolo[1,2-f][1,2,4]triazin-2-yl)pyrrolidin-1-yl)-7H-pyrrolo[2,3-d]pyrimidine-5-carbonitrile]
- PI3Kα IH % @ 1 uM [5]: 50.8%
- PI3Kβ IH % @ 1 uM [1]: 47.7%
- PI3Kδ IH % @ 1 uM [2]: 97.8%
- IC50 [2]: 0.002 µM
- PI3Kγ IH % @ 1 uM [3]: 91.9%

SMILES: Nc1nc(N2CCC[C@H]2c2nn3cccc3c(=O)n2-c2ccccc2)c2nc[nH]c2n1 [Compound 2]
- PI3Kα IH % @ 1 uM [5]: 5.1%
- PI3Kβ IH % @ 1 uM [1]: 38.0%
- PI3Kδ IH % @ 1 uM [2]: 98.2%
- PI3Kγ IH % @ 1 uM [3]: 98.8%

SMILES: O=c1c2cccn2nc([C@@H]2CCCN2c2ncnc3[nH]cc(Cl)c23)n1-c1ccccc1 [Compound 3]
- PI3Kα IH % @ 1 uM [5]: 12.0%
- PI3Kβ IH % @ 1 uM [1]: 17.8%
- PI3Kδ IH % @ 1 uM [2]: >100%
- IC50 [2]: 0.015 µM
- PI3Kγ IH % @ 1 uM [3]: 82.5%
- IC50 [3]: 0.365 µM

SMILES: O=c1c2cccn2nc([C@@H]2CCCN2c2ncnc3[nH]cnc23)n1-c1ccccc1 [Compound 4]
- PI3Kα IH % @ 1 uM [5]: 2.6%
- PI3Kβ IH % @ 1 uM [1]: 17.4%
- PI3Kδ IH % @ 1 uM [2]: 94.1%
- IC50 [2]: 0.01 µM
- PI3Kγ IH % @ 1 uM [3]: 92.4%
- IC50 [4]: 3.94 µM

SMILES: N#Cc1c(N)ncnc1N1CCC[C@H]1c1nn2cccc2c(=O)n1-c1ccccc1 [Compound 5]
- PI3Kα IH % @ 1 uM [5]: 32.5%
- PI3Kβ IH % @ 1 uM [1]: 46.4%
- PI3Kδ IH % @ 1 uM [2]: 98.3%
- PI3Kγ IH % @ 1 uM [3]: 69.6%

SMILES: N#Cc1c[nH]c2ncnc(N3CCC[C@H]3c3nn4cccc4c(=O)n3-c3cccc(Cl)c3)c12 [Compound 15]
- PI3Kα IH % @ 1 uM [5]: 24.6%
- PI3Kβ IH % @ 1 uM [1]: 5.4%
- PI3Kδ IH % @ 1 uM [2]: 100%
- PI3Kγ IH % @ 1 uM [3]: 72.0%
- IC50 [3]: 0.312 µM

SMILES: NC(=O)c1c[nH]c2ncnc(N3CCC[C@H]3c3nn4cccc4c(=O)n3-c3ccccc3)c12 [Compound 94, (S)-4-(2-(4-oxo-3-phenyl-3,4-dihydropyrrolo[1,2-f][1,2,4]triazin-2-yl)pyrrolidin-1-yl)-7H-pyrrolo[2,3-d]pyrimidine-5-carboxamide]
- PI3Kα IH % @ 1 uM [5]: 36.3%
- PI3Kβ IH % @ 1 uM [1]: 53.5%
- PI3Kδ IH % @ 1 uM [2]: >100%
- PI3Kγ IH % @ 1 uM [3]: >100%
- IC50 [3]: 0.022 µM

SMILES: C=Cc1c[nH]c2ncnc(N3CCC[C@H]3c3nn4cccc4c(=O)n3-c3ccccc3)c12 [Compound 98, (S)-3-phenyl-2-(1-(5-vinyl-7H-pyrrolo[2,3-d]pyrimidin-4-yl)pyrrolidin-2-yl)pyrrolo[1,2-f][1,2,4]triazin-4(3H)-one]
- PI3Kα IH % @ 1 uM [5]: 16.2%
- PI3Kβ IH % @ 1 uM [1]: 15.2%
- PI3Kδ IH % @ 1 uM [2]: 88.4%
- PI3Kγ IH % @ 1 uM [3]: 87.9%
- IC50 [3]: 0.099 µM

SMILES: N#Cc1c[nH]c2ncnc(N3CCC[C@H]3c3nn4ccc(C#N)c4c(=O)n3-c3ccccc3)c12 [Compound 113]
- PI3Kα IH % @ 1 uM [5]: 28.3%
- PI3Kβ IH % @ 1 uM [1]: 74.9%
- IC50 [1]: 0.244 µM
- PI3Kδ IH % @ 1 uM [2]: 99.3%
- IC50 [2]: 0.006 µM
- PI3Kγ IH % @ 1 uM [3]: >100%
- IC50 [3]: 0.043 µM

SMILES: N#Cc1cnc(N)nc1N1CC[C@H]1c1nn2ccc(Cl)c2c(=O)n1-c1ccccc1 [Compound 212]
- IC50 ([5]; read-out: PI3Kα IC50): > 1 µM

SMILES: C[C@H]1CCN(c2nc(N)ncc2C#N)C1c1nn2ccc(Cl)c2c(=O)n1-c1ccccc1 (stereo partly drawn) [Compound 236]
- IC50 [1]: 0.081 µM
- IC50 [2]: 0.002 µM
- IC50 [3]: 0.004 µM
- IC50 [4]: 0.046 µM

SMILES: Nc1ncc(C(=O)C(F)(F)F)c(N2CC[C@H]2c2nn3ccc(Cl)c3c(=O)n2-c2ccccc2)n1 [Compound 325]
- IC50 [1]: > 1 µM
- IC50 [4]: 0.08 µM

Reference: patent US20150291593A1, “NOVEL HETEROARYL AND HETEROCYCLE COMPOUNDS, COMPOSITIONS AND METHODS” (HUTCHISON MEDIPHARMA LIMITED, priority 2012, published 2015)
